Results published in patent publication US20050112128A1, “Inhibition of protein kinase c-mu (PKD) as a treatment for cardiac hypertrophy and heart failure” (Myogen, Inc. and Board of Regents, The University of Texas …, priority 2003, published 2005).
“Also recorded” adds a separate entry of the source.

Assays:
HDAC5-bound PKD = target: T1, HDAC5-bound PKD (Rattus norvegicus, UniProt Q9WTQ1); assay type: biochemical; details: 10 μM inhibitor in kinase reaction mixture (post)
T1 construct: Association of endogenous PKD with HDAC5 in cardiomyocytes; endogenous in cells; host or cells: neonatal rat ventricular myocytes; the kinase co-precipitated with adenoviral FLAG-HDAC5
T1 sequence (Q9WTQ1 1-918): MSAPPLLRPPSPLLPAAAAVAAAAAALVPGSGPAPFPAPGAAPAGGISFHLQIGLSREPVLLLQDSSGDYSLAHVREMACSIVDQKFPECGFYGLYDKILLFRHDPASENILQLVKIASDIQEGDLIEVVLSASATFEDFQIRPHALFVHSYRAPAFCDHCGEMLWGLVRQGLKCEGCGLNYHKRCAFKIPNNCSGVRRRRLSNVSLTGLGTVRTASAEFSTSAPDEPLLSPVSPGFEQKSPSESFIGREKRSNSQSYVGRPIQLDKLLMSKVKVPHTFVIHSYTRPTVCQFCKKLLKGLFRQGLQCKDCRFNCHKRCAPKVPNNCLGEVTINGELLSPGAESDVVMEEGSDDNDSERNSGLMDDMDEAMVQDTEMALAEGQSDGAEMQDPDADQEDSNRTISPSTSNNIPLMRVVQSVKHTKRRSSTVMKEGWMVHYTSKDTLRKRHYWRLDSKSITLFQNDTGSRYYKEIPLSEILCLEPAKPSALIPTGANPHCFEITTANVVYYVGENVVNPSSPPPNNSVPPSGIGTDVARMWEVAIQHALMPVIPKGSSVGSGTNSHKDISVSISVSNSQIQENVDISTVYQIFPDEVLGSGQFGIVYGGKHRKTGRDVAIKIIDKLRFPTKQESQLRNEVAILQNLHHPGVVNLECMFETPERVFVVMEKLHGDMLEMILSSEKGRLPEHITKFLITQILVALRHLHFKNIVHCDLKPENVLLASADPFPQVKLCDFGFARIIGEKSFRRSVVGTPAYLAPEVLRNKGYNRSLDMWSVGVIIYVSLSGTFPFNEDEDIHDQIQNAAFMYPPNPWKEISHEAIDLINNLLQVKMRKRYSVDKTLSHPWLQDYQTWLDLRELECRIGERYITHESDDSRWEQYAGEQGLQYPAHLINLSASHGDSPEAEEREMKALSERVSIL

PKD = target: T2, PKD (Homo sapiens, UniProt Q15139); details: literature (Van Lint 2002; Gschwendt 1996; Haworth); cited from earlier work
T2 sequence (Q15139 1-912): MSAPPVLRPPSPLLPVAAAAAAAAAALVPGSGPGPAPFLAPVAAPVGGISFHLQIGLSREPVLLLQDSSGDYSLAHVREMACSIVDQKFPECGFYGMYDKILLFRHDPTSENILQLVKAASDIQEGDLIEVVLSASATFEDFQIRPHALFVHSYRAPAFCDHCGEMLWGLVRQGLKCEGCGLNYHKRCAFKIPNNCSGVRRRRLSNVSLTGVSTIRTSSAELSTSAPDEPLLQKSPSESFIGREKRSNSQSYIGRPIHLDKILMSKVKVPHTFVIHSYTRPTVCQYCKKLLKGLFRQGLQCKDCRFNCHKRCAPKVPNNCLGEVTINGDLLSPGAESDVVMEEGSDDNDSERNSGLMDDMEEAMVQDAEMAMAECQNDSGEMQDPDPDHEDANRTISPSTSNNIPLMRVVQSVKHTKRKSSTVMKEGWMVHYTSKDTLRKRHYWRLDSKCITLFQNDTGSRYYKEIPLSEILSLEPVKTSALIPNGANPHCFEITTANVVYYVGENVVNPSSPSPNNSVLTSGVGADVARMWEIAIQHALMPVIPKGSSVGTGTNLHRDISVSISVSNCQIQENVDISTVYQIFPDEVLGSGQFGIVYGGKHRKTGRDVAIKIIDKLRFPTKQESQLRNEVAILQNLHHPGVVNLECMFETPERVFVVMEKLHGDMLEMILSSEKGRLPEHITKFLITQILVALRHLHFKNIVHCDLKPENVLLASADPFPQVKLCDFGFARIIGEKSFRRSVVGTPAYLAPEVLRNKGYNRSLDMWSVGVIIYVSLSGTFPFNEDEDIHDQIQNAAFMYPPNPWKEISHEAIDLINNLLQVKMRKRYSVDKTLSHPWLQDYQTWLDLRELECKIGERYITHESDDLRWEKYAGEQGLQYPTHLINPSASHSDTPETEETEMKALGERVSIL

[1] = tested on: association of HDAC5 and 14-3-3; test: Immunoprecipitation/immunoblotting of HDAC5 and 14-3-3 in NRVMs; assay type: cell-based, rat; details: inhibitor 10 μM, 1 hr before PE (20 μM) or ET-1 (50 nM) for 1 hr
[2] = tested on: nuclear export of GFP-HDAC5 in NRVMs; test: Quantitative HDAC5 nuclear export assay in NRVMs (Cellomics High Content Imaging System); assay type: cell-based, rat; details: 2 hrs
NRVMs = test: ANF immunostaining of cardiomyocytes (hypertrophy marker); assay type: cell-based, rat; details: PE 20 μM or PMA 100 nM, 24 hrs
Experimental: FIGS. 3A-C—Inhibition of PKC-mediated cardiac hypertrophy by signalresistant HDAC5. NRVMs were cultured on 6-well dishes and infected with adenoviruses (MOI=10) encoding a LacZ control (Ad-LacZ) or FLAG-tagged HDAC5 harboring alanines in place of serines 259 and 498 (Ad-HDAC5 S/A), which are required for 14-3-3-mediated nuclear export. Cells were treated with PE (20 μM) or PMA (100 nM) for 24 hrs prior to analysis. FIG. 3A. Cells were fixed and sarcomeres visualized by indirect immunofluorescence with primary antibody specific for α-actinin and fluorescein-conjugated secondary antibody. FIG. 3B. ANF protein was detected by indirect immunofluorescence with anti-ANF primary antibody. FIG. 3C. Total RNA was harvested from cells and subjected to dot blot analysis with radiolabeled oligonucleotides specific for the indicated transcripts. RNA levels were quantified using a phosphorimager and are depicted as -fold change relative to amounts in unstimulated cells infected with Ad-LacZ. Values were normalized to GAPDH controls.
Cell culture and transfection assays. COS cells were maintained in DMEM with FBS (10%), L-glutamine (2 mM), and penicillin-streptomycin. Transfection of COS cells was performed with Fugene 6 (Roche Molecular Biochemicals) according to manufacturer's instructions. […]

endogenous PKD = test: Co-immunoprecipitation of endogenous PKD with HDAC5 in NRVMs (total PKD and p-916 immunoblot); assay type: cell-based, rat; details: PE 20 μM 1 hr, absence or presence of Bis I 10 μM
[3] = Takahashi et al., 1996; cited from earlier work
ras transformed cells = details: Taunton et al., 1996; cited from earlier work

Cn1c2ccccc2c2c3c(c4c5ccccc5n(CCC#N)c4c21)CNC3=O [Gö6976]
block of HDAC5 phosphorylation, inhibitor added directly to kinase reaction (HDAC5-bound PKD): blocked phosphorylation of HDAC5; also recorded: blocked phosphoryl transfer to HDAC5
sensitivity of PKD to the inhibitor (PKD): sensitive to Gö6976
block of association of HDAC5 and 14-3-3 [1]: blocked association of HDAC5 and 14-3-3 in response to both PE and ET-1
block of ET-1-induced nuclear export of HDAC5 ([2]; NRVMs, ET-1 50 nM, inhibitor pre-treatment 30 min): efficiently blocked nuclear export of HDAC5
block of FBS-induced nuclear export of HDAC5 ([2]; NRVMs, FBS 10%, inhibitor pre-treatment 30 min): efficiently blocked nuclear export of HDAC5
block of PE-induced nuclear export of HDAC5 ([2]; NRVMs, PE 20 μM, inhibitor pre-treatment 30 min, KN93, wortmannin, staurosporine 1 mM, U1026, HA1077, Y-27632, DAG Kinase inhibitor II, SB216763, Bis I 10 mM, rapamycin 30 ng/ml, Gö6983 10 μM): efficiently blocked nuclear export of HDAC5

CNC[C@H](O)c1cccc(O)c1 [PE, phenylephrine]
ANF protein expression (NRVMs): prominent perinuclear ANF protein expression
activation of HDAC5-associated PKD (endogenous PKD): became activated in a PKC-dependent manner
agonist-triggered nuclear export of HDAC5 in cardiomyocytes ([2]; NRVMs infected with Ad-GFP-HDAC5, PE 0.1 to 20 μM, ET-1 50 nM, FBS 10%): triggered nuclear export of HDAC5 in a concentration-dependent manner; also recorded: triggered dose-dependent nuclear export of HDAC5

CC(/C=C/C(=O)NO)=C\[C@@H](C)C(=O)c1ccc(N(C)C)cc1 [Trichostatin A]
immunosuppression in a mouse model [3]: induces immunsuppression in a mouse model
effect on acetylation and morphology of ras transformed cells (ras transformed cells): induce hyperacetylation and cause reversion of ras transformed cells to normal morphology
